System: type V secretion system-mediated release of the cytotoxin VacA
Type: cell-based, H. pylori

Row | Structure (SMILES) | type V secretion system-mediated release of VacA into cell culture supernatants
1 | O=C(O)[C@@H]1CSc2c(C3CC3)c(Cc3cccc4ccccc34)cc(=O)n21 [Compound C10, (3R)-8-cyclopropyl-7-(naphthalen-1-ylmethyl)-5-oxo-3,5-dihydro-2H-thiazolo[3,2-a]pyridine-3-carboxylic acid] | did not impair
2 | COc1ccc(Cc2cc(=O)n3c(c2C2CC2)SC[C@H]3C(=O)O)c2ccccc12 [KSK85, (3R)-7-[(4-methoxynaphthalen-1-yl)methyl]-8-cyclopropyl-5-oxo-2,3-dihydro-5H-[1,3]thiazolo[3,2-a]pyridine-3-carboxylic acid] | did not impair

Reference: patent US20170233409A1, “TYPE IV SECRETION SYSTEM INHIBITORS” (priority 2016, published 2017)
